Legend:
Format in all cases: cell-based
[1] = test system: bacterial consortium PB002; experiment: Continuous co-culture of consortium PB002 in a bioreactor, daily metabolite concentrations before and after glycerol supplementation; conditions: PB002, addition of 30 mM glycerol at day 38 of continuous culture
From the text: FIG. 1: Daily metabolite concentration of the continuously co-cultured bacterial consortium PB002 in a bioreactor before and after the supplementation of glycerol. Day of sampling from day 30 to day 55 after inoculation are represented on the x-axis and the concentrations of acetate, propionate, butyrate, formate, lactate, and succinate indicated in mM on the y-axis.
The concentrations of the produced metabolites were quantified by refractive index detection HPLC (Thermo Scientific Accela™, ThermoFisher Scientific; HPLC-RI)). […] Bacteria cultures to be analyzed were centrifuged at 14.000-x g for 10 min at 4° C. Filter-sterilized ([…]) supernatants were analyzed. […] Peaks were analyzed using AgilentEzChrome Elite software (Version: 3.3.2 SP2, Agilent Technologies, Inc. Pleasanton, USA). […]
(§1) The bioreactor was consecutively operated at pH 6.0 for 24 h in order to allow growth of primary degraders and subsequent consumption of the produced intermediate metabolites. Growth was monitored by base consumption and optical density. Metabolites were monitored using HPLC-RI as described above. […]
The consortium PB002 was continuously cultured in a bioreactor during 55 days. Metabolite concentrations were measured daily before and after glycerol supplementation (addition of 30 mM glycerol) at day 38.

[2] = test system: bacterial consortium PB010; experiment: Continuous co-culture, relative end metabolite concentrations on day 2 and 8 (glycerol supplemented after day 2), PB010; conditions: PB010 (n=3), glycerol supplemented after day 2, day 8 vs day 2
Procedure: (§2) FIG. 5: Relative end metabolite concentration of the continuously co-cultured bacterial consortia PB002 (n=2) and PB010 (n=3) in bioreactors on day 2 and 8 of co-cultivation. All bioreactors were cultivated for 48 hours in a medium without glycerol.
(§3) The bacterial consortium PB002 and the bacterial consortium PB010 were continuously cultured in bioreactors. Relative end metabolite concentrations were determined on day 2 and 8 of co-cultivation.
(§4) All bioreactors were cultivated for 48 hours in a medium without glycerol.

[3] = test system: butyrate producing strains of group A6; experiment: qPCR quantification of absolute abundances of PB002 strains during continuous culture; conditions: glycerol supplementation
From the text: FIG. 2: Absolute abundances of all strains of the continuously cultured consortium PB002 in a bioreactor before and after the supplementation of glycerol. Abundances were quantified using qPCR and are indicated in copies of the 16S rRNA gene/ml of culture for the strains representing A1, A2, A3, A4, A5, A6, A7, A8, and A9.
To test maintenance of all bacterial strains of exemplary consortia PB002 and PB010 in the culture over time, qPCR quantification of the single strains of each consortium was performed using the primers listed in Table 3.
DNA from pellets of the fermentation effluent was extracted using the FastDNA™ SPIN Kit for Soil (MP Bio). Genomic DNA extracts were 10-fold diluted using DNA-free H2O. qPCRs were performed using Mastermix SYBR® green 2× and LowRox (Kapa Biosystems), primers (10 μM) and DNA-free H2O were used in a ABI 7500 FAST thermal cycler (Applied Biosystems) as recommended by the producer and quantified using standards of amplified whole 16S rRNA gene amplicon sequences of the strains cloned into the pGEMT easy vector (Promega, Madison WI, USA). Amplification of the whole 16S rRNA gene was performed with a combination of whole 16S rRNA gene amplification primers using one forward and one reverse primer from the primers listed in Table 4. qPCR quantification of the single strains is shown in copies of genomic 16S rRNA gene per ml of culture (FIG. 2). […]

[4] = test system: bacterial consortium PB010; experiment: Continuous co-culture of consortium PB010 in bioreactors with and without glycerol, absolute metabolite concentrations; conditions: PB010, medium with 30 mM glycerol vs without, day 8 after inoculation
From the text: FIG. 4: Absolute metabolite concentration of the continuously co-cultured bacterial consortium PB010 in a bioreactor at day 8 after inoculation: (1) cultured in a culture medium without glycerol, (2) cultured in a culture medium supplemented with glycerol. Absolute metabolites of the two reactors are represented on the x-axis and the concentrations of acetate, propionate, and butyrate are indicated in mM on the y-axis.
The concentrations of the produced metabolites were quantified by refractive index detection HPLC (Thermo Scientific Accela™, ThermoFisher Scientific; HPLC-RI)). HPLC-RI analysis was performed using a SecurityGuard Cartridges Carbo-H (4×3.0 mm) (Phenomenex, Torrence, USA) as guard-column connected to a Rezex ROA-Organic Acid H+ column (300×7.8 mm) (Phenomenex). Bacteria cultures to be analyzed were centrifuged at 14.000-x g for 10 min at 4° C. Filter-sterilized ([…]) supernatants were analyzed. Injection volume for each sample was […]. […] Peaks were analyzed using AgilentEzChrome Elite software (Version: 3.3.2 SP2, Agilent Technologies, Inc. Pleasanton, USA). […]
as §1

[5] = test system: bacterial consortium PB002; experiment: Continuous co-culture, relative end metabolite concentrations on day 2 and 8 (glycerol supplemented after day 2), PB002; conditions: PB002 (n=2), glycerol supplemented after day 2, day 8 vs day 2
Procedure: as §2, §3, §4

SMILES: OCC(O)CO [glycerol]
- accumulation of the intermediate metabolites formate, lactate, succinate [1]: no accumulation
- butyrate production of the consortium [1]: enhanced butyrate production immediately
- butyrate production (relative end metabolite concentration) [2]: increase in butyrate production
- abundance of butyrate producing strains of group A6 (16S rRNA gene copies/ml) [3]: positively affects abundance
- accumulation of succinate, lactate or formate [4]: no accumulation
- butyrate production of the consortium [4]: stimulates butyrate production
- butyrate production (relative end metabolite concentration) [5]: increase in butyrate production
